Test results reported in patent publication US12122812B2, “Method for preparing biomaterial having selectively functionalized tyrosine, biomaterial having selectively functionalized tyrosine, and pharmaceutical composition containing same as active ingredient” (SEOUL NATIONAL UNIVERSITY R&DB FOUNDATION, priority 2018, dated 2024).

Experiments:
[1] = tested on: Balb/c mice; assay: Hematopoietic function of PEGylated rhEPO: hematocrit (HCT) in mice; type: in vivo; conditions: normal male Balb/c mice, intravenous 20 μg/kg every 3 days
Experimental: In order to confirm whether the PEGylated rhEPO obtained in Example 1 maintained the hematopoietic function even after the PEGylation, the following experiment was performed, and the results are shown in FIG. 6.
The rhEPO without PEGylation and the PEGylated rhEPO (PEG-rhEPO) prepared in Example 1 were intravenously injected into Balb/c mice at a dose of 20 μg/kg every 3 days. In vivo activities were compared by measuring hematocrit (HCT), a reliable method for quantification of erythrocytes. As a control, phosphate buffered saline (PBS) was used.
Particularly, normal male Balb/c mice were purchased from Orient Bio Inc. (South Korea). The weight of the mice was 23-25 g, and the mice were housed in groups of 3-4 mice in one cage. Food and water were supplied freely (ad libitum), and each cage was allowed to have a 12-hour light/dark cycle under the conventional animal experiment system of KPC, Korea.
Each sample (rhEPO or PEG-rhEPO) ([…] in DPBS) was injected intravenously into normal male Balb/c mice (50 μL/mouse) every 3 days for 2 weeks. The same amount of DPBS was administered to the control group. A total of 21 mice were used in the experiment. Blood samples were collected every 3 days including day 0 to evaluate the hematopoietic effect. Hematocrit was evaluated by measuring the volume of the packed cells obtained by centrifugation performed immediately after the blood collection. Delta hematocrit (DHematocrit) was determined by the difference between the initial hematocrit for each mouse (day 0) and the hematocrit at each time point.

[2] = tested on: HeLa cells; assay: Cytotoxicity by cell counting kit-8 (CCK-8) viability test; type: cell-based; conditions: 0.1 to 100 μM
Experimental: The cytotoxicity was evaluated in HeLa cells by cell counting kit-8 (CCK-8) viability test.
Particularly, HeLa cells were seeded in a 96-well tissue culture plate at the density of 5,000 cells/well and cultured in 100 μL of DMEM (Dulbecco's Modified Eagle's Medium) supplemented with 10% FBS (fetal bovine serum) for 24 hours. After replacing the medium with 90 μL of a fresh medium, 10 μl of the compound prepared in Preparative Example 4 of various concentrations (final 0.5% DMSO) was added to each well of the plate, and the cells were further cultured for 24 hours and 48 hours. The cells were washed 3 times with a fresh medium to remove extracellular samples, and 100 μl of a fresh medium containing 10% CCK-8 was added to each well of the plate. After incubating the cells at 37° C. for 2 hours, OD450 was measured with a microplate reader (Molecular Devices Co., Menlo Park, Calif., USA). Only the background signal of CCK-8 was subtracted from all the samples. The cell viability was evaluated as the percentage of absorbance of the untreated cells to the control.

Compound	HCT level compared with rhEPO without PEGylation (statistical analysis) [1]	HCT level (hematocrit) over time ([1]; blood sampled every 3 days for 15 days)	HCT level compared with control group (statistical analysis) ([1]; control PBS/DPBS)	Cytotoxicity (cell viability, CCK-8) ([2]; 24 hours)	Cytotoxicity (cell viability, CCK-8) ([2]; 48 hours)
PEG-rhEPO: PEGylated recombinant human erythropoietin, PEG bound by sulfate bond to Tyr-49	no significant difference	increased for 15 days	clear difference		
N[C@@H](Cc1ccc(OS(=O)(=O)Oc2ccc(C[C@H](N)C(=O)O)cc2)cc1)C(=O)O [Preparative Example 4, (2S,2'S)-3,3′-((sulfonylbis(oxy))bis(4,1-phenylene))bis(2-aminopropanoic Acid)]				did not show cytotoxicity	did not show cytotoxicity
